Read-outs that look alike come from different tables or passages of the source. Marks after values point to notes of the source that are not given here.
Legend:
Format in all cases: in vivo
[1] = test system: bed bugs, Cimex lectularius; assay: Bed bug repellency bioassay, Petri dish arena; details: filter paper, 100 uL, 1% v/v in hexane, average of 3 replicates x 3 observation periods
Source text: (i) Petri Dish arenas consisted of a standard plastic, covered Petri Dish where test substrates were placed at opposite sides of the dish. Dimensions of the dish were 101.6 mm in diameter by 25.4 mm in depth.
(ii) Filter paper of standard size and folded as per (i).
In the case of gauze and filter paper substrates, control solvents and test mixtures of known concentrations and volumes were dispensed directly onto substrates using a pipette. […]
Immediately after the substrates were infused with test compounds and control solvents, test subjects were introduced to the centre of the selected observation arena. […] Only subjects that were in close contact with the treatment or control substrates were recorded. […] Percentage repellency was calculated based on a modification of Abbott's formula to account for negative repellency (attraction). […]

[2] = test system: bed bugs, Cimex lectularius; assay: Bed bug repellency bioassay, glass tube olfactometer arena; details: for pest or weed control at 25 % strength / pest or weed control at 5 % strength / pest or weed control at 1 %: Cimex lectularius; for pest or weed control at 1 %: 10 uL, 1% v/v in hexane
Procedure: (§1) Per individual bioassay, 10 adult or late instar nymph bed bugs, Cimex lectularius, of mixed sex. Bed bugs sourced from wild, field populations and tested within 2 weeks of capture. Subjects were tested one time, only.
(ii) Olfactometer consisting of a glass tube. Tube ends were plugged to prevent egress of test subjects. Test substrates were placed at opposite ends of the tube. Tube Olfactometer includes a port in the centre for introduction of test subjects. Dimensions of the tube were 15.2 mm in diameter by 304.8 mm long.
Compounds were either purchased from commercial sources or synthesized using conventional synthetic organic chemistry techniques (see, for example, Examples 5 to 7). Some compounds (014, 058 and 080) were tested in duplicate (one version from commercial sources and one synthesized) and the best performance is reported in the Tables below. Of the tested compounds reported in the Tables below, the following compounds were synthesized: 006, 010, 017, 018, 040, 041 to 043, 045, 046, 048, 049, 058, 067 to 075, 079, 080 to 082, 089 and 090.
Test compounds consisted of a control and treatment. The treatment consisted of a test compound mixed as a percentage w/w in a suitable solvent. The test compound solvent itself was used as a control. Solvents used were hexane, hexane:methanol, or dichloromethane:methanol.
(i) Gauze cut to a standard size and folded upon itself to provide harbourage for test subjects.
(iii) Absorbent polymer “aroma” beads that were given sufficient time to fully absorb test compounds and control solvents.
In the case of gauze and filter paper substrates, control solvents and test mixtures of known concentrations and volumes were dispensed directly onto substrates using a pipette. For polymer beads, beads were mixed w/w with solvent or test compound in a small glass jar. The jars were occasionally agitated to facilitate soaking of the beads.
(§2) Immediately after the substrates were infused with test compounds and control solvents, test subjects were introduced to the centre of the selected observation arena. […] Only subjects that were in close contact with the treatment or control substrates were recorded. Subjects elsewhere in the arena were not included in repellency calculations. Percentage repellency was calculated based on a modification of Abbott's formula to account for negative repellency (attraction). Specifically: IF(C>=T,(C−T)/C*100,(T−C)/T*−100)
(§3) where C is number of test subjects in contact with control substrate and T is number of test subjects in contact with treatment substrate.
All average repellency results reported in the table are based on 3 replicates for each reported trial, with each trial involving at least 3 observation periods. The observation periods were short-term (30 min), medium-term (1-2 hours), and long-term (24-48 hours). The “overall average” reported in the table represents the average for 3 replicates for 3 observation periods. […]
To determine whether compounds could be combined in the repellent compositions, compounds 14 and 35 were each tested at a concentration of 5% (w/w), and as a combination comprising each compound at a concentration of 2.5% (w/w). The formulations were tested as described in Example 1 using the olfactometer configuration.

[3] = test system: bed bugs, Cimex lectularius; assay: Bed bug repellency bioassay, box arena (formulations of compound 35)
Procedure: as §1
(iii) Box arenas consisted of covered plastic “Rubbermaid” box where the cover was modified to fit a mesh screen to allow movement of air between the test arena interior and outside. Test substrates were placed at opposite ends of the box arena. Dimensions of the box were 304.8 mm long by 200 mm wide by 80 mm in depth.
as §2, §3
Compound 35 was formulated as a spray formulation in which the compound was dissolved in isopropyl alcohol (IPA) at concentrations of 1%, 2.5% and 5%.
In addition, compound 35 was tested on plastic slow-release beads. The beads were cured with either: 1) 20% (w/w) neat compound 35, or 2) 20% (w/w) of a 1:1 mixture of compound 35 and wintergreen oil (methyl salicylate).
The formulations were tested as described in Example 1 using the box configuration.

[4] = beads, 20 uL, 25% w/w in hexane, average of 3 replicates x 3 observation periods, read-out: % Repellency (% R), Overall Average
[5] = gauze, 50 uL, 5% w/v in hexane, average of 3 replicates x 3 observation periods, read-out: % Repellency (% R), Overall Average
[6] = observation period T1, gauze, 50 uL, 5% w/v in hexane, read-out: % Repellency T1 (average of 3 repetitions)
[7] = observation period T2, gauze, 50 uL, 5% w/v in hexane, read-out: % Repellency T2 (average of 3 repetitions)
[8] = observation period T3, gauze, 50 uL, 5% w/v in hexane, read-out: % Repellency T3 (average of 3 repetitions)
[9] = gauze, average of 3 replicates x 3 observation periods, read-out: % Repellency (% R), Overall Average
[10] = gauze, best single observation (one repetition, one time), read-out: % Repellency, At least One Time >50%
[11] = observation period T1, gauze, read-out: % Repellency T1 (average of 3 repetitions)
[12] = observation period T2, gauze, read-out: % Repellency T2 (average of 3 repetitions)
[13] = observation period T3, gauze, read-out: % Repellency T3 (average of 3 repetitions)

CCOC(=O)CCC(=O)O [Compound 055, Mono-ethyl succinate]
% Repellency (% R), Overall Average [1]: 73%

CCC(=O)OCc1ccco1 [Compound 035, Furfuryl propionate]
pest or weed control at 25 % strength [2, 4]: > 80% | % R (Overall Average) ([2]; Example 2, single compound at 5% (w/w)): 95% | % R (Overall Average) ([3]; IPA spray, 1% (w/w) compound 35 in isopropyl alcohol): 92% | % R (Overall Average) ([3]; IPA spray, 2.5% (w/w) compound 35 in isopropyl alcohol): 94% | % R (Overall Average) ([3]; IPA spray, 5% (w/w) compound 35 in isopropyl alcohol): 100% | repellency of formulations (in words) ([3]; both formulation formats (IPA spray, plastic beads), all concentrations tested): excellent repellency | % R (Overall Average) ([3]; plastic slow-release beads cured with 20% (w/w) neat compound 35): 100% | % R (Overall Average) ([3]; plastic slow-release beads, 10% compound 35 + 10% wintergreen oil (methyl salicylate)): 100%

CCC(=O)NC [Compound 032, N-Methylpropionamide]
pest or weed control at 25 % strength ([2]; read-out: % Repellency (% R), Overall Average, beads, 20 uL, 25% w/w in hexane, average of 3 replicates x 3 observation periods): -9% | pest or weed control at 25 % strength ([2]; read-out: % Repellency T1 (average of 3 repetitions), observation period T1, beads, 20 uL, 25% w/w in hexane): 39% | pest or weed control at 25 % strength ([2]; read-out: % Repellency T2 (average of 3 repetitions), observation period T2, beads, 20 uL, 25% w/w in hexane): -40% | pest or weed control at 25 % strength ([2]; read-out: % Repellency T3 (average of 3 repetitions), observation period T3, beads, 20 uL, 25% w/w in hexane): -25% | pest or weed control at 25 % strength ([2]; read-out: % Repellency, At least One Time >50%, beads, 20 uL, 25% w/w in hexane, best single observation (one repetition, one time)): 100%

COC(=O)/C=C/C(C)=O [Compound 056, Methyl trans-4-oxo-2-pentenoate]
pest or weed control at 5 % strength [2, 5]: 53%

CC(O)c1ccco1 (stereo not shown) [Compound 069, 1-(furan-2-yl)ethanol]
pest or weed control at 25 % strength [2, 4]: > 80%

CCCCCCCCCCCC(C)=O [Compound 024, Methyl undecyl ketone (2-tridecanone)]
pest or weed control at 5 % strength [2, 5]: > 80%

CCCCC(=O)/C=C/CO [Compound 041, (E)-1-hydroxyoct-2-en-4-one]
pest or weed control at 5 % strength [2, 5]: > 80%

C=COC(=O)CC [Compound 031, Vinyl propionate]
pest or weed control at 5 % strength [2, 5]: 8% | pest or weed control at 5 % strength ([2]; gauze, 50 uL, 5% w/v in hexane, best single observation (one repetition, one time), read-out: % Repellency, At least One Time >50%): 100% | pest or weed control at 5 % strength [2, 6]: 45% | pest or weed control at 5 % strength [2, 7]: 45% | pest or weed control at 5 % strength [2, 8]: -67%

CCC(=O)C(=O)OC [Compound 054, Methyl-2-oxobutanoate]
pest or weed control at 1 % [2, 9]: > 80%

CCC(=O)NCC(OC)OC [Compound 045, N-(2,2-dimethoxyethyl) propionamide]
pest or weed control at 5 % strength [2, 5]: 70%

CCC(=O)OCC=O [Compound 008, 2-oxoethyl propionate]
pest or weed control at 5 % strength [2, 5]: 27% | pest or weed control at 5 % strength [2, 6]: 12% | pest or weed control at 5 % strength [2, 7]: 53% | pest or weed control at 5 % strength [2, 8]: 17% | % Repellency, At least One Average >50% ([2]; gauze, 50 uL, 5% w/v in hexane, best average over 3 replicates for a single time period): 53%

CCCCC/C=C/C=O [Compound 039, trans-2-octenal]
pest or weed control at 5 % strength [2, 5]: 78%

C=CC(O)c1ccco1 (stereo not shown) [Compound 078, 2-Furanmethanol, a-ethenyl-]
pest or weed control at 25 % strength [2, 4]: > 80%

CCCCCCCCCCC(C)=O [Compound 061, 2-dodecanone]
pest or weed control at 5 % strength [2, 5]: > 80%

CCC(=O)/C=C/CO [Compound 006, (E)-6-hydroxyhex-4-en-3-one]
pest or weed control at 1 % [2, 9]: -49% | pest or weed control at 1 % [2, 10]: 57% | pest or weed control at 1 % [2, 11]: -62% | pest or weed control at 1 % [2, 12]: -74% | pest or weed control at 1 % [2, 13]: -11%

CCOC(=O)/C=C(\C)C=O [Compound 057, Ethyl 3-methyl-4-oxocrotonate]
pest or weed control at 25 % strength [2, 4]: > 80%

CN(C)C(=O)CCC(=O)O [Compound 053, 4-(Dimethylamino)-4-Oxobutanoic acid]
pest or weed control at 1 % [2, 9]: 52%

CCC(=O)/C=C/C(C)O (stereo not shown) [Compound 042, (E)-6-hydroxyhept-4-en-3-one]
pest or weed control at 5 % strength [2, 5]: 76%

CCOC(=O)c1ccco1 [Compound 085, Ethyl 2-furoate]
pest or weed control at 25 % strength [2, 4]: 73%

C=CCOC(=O)CC [Compound 017, allyl propionate]
pest or weed control at 1 % [2, 9]: 4% | pest or weed control at 1 % [2, 10]: 90% | pest or weed control at 1 % [2, 11]: -20% | pest or weed control at 1 % [2, 12]: 13% | pest or weed control at 1 % [2, 13]: 18%

CCC(=O)C(=O)CC [Compound 027, 3,4-Hexanedione]
pest or weed control at 5 % strength ([2]; read-out: % Repellency (% R), Overall Average, gauze, 50 uL, 5% w/v in hexane, average of 3 replicates x 3 observation periods): 75%

CCCCC(O)c1ccco1 (stereo not shown) [Compound 073, 1-(furan-2-yl) pentan-1-ol]
pest or weed control at 5 % strength [2, 5]: > 80%

From patent US11116212B2, “Carbonyl containing compounds for controlling and repelling Cimicidae populations” (SemiosBio Technologies Inc., priority 2011, dated 2021)
